Several values for one entry are separate records, joined by “and”; a condition that tells them apart may be missing. Identical values can stand only once.

Here are results for twelve molecules from article PMC10537368, “Design, Synthesis, and Biological Evaluation of Novel 3-Cyanopyridone/Pyrazoline Hybrids as Potential Apoptotic Antiproliferative Agents Targeting EGFR/BRAF^V600E Inhibitory Pathways” (Molecules, 2023).

For data set [1], the system named is four human cancer cell lines (A-549, MCF-7, Panc-1, HT-29). As to the kind of experiment: Antiproliferative MTT assay, average over four cancer cell lines (GI50). It is filed as cell-based. The conditions noted are these: for IC50: Homo sapiens, average IC50 against the four cancer cell lines. In general terms: Tetrazolium assays rely on reduction of a dye to a coloured formazan, in cell work by metabolically active cells.

The next data set addresses BRAF^V600E (Homo sapiens, UniProt P15056, V600E). As to the kind of experiment: BRAF^V600E inhibitory assay. Conditions: read-out: BRAF^V600E Inhibition IC50 ± SEM. It is filed as biochemical.
Data set [2] relates to lung cancer (A-549) cell line. As to the kind of experiment: Antiproliferative MTT assay, A-549. It is filed as cell-based. The conditions noted are these: Homo sapiens, A549; A-549, MTT; read-out: Antiproliferative Activity IC50 ± SEM, A-549. An excerpt: (§1) The median inhibitory concentration (IC50) and GI50 [58]
The test system of data set [3] is pancreatic cancer (Panc-1) cell line. In words: Antiproliferative MTT assay, Panc-1. It is filed as cell-based. Conditions: Homo sapiens; Panc-1, MTT; read-out: Antiproliferative Activity IC50 ± SEM, Panc-1.
Excerpt: as §1

Another data set addresses EGFR (Homo sapiens, UniProt P00533). In words: EGFR inhibitory assay. The conditions noted are these: for fold more potent than the reference Erlotinib (EGFR IC50): IC50 ratio vs Erlotinib.
The subject of data set [4] is colon cancer (HT-29) cell line. As to the kind of experiment: Antiproliferative MTT assay, HT-29. The class given is cell-based. The conditions noted are these: Homo sapiens; HT-29, MTT; read-out: Antiproliferative Activity IC50 ± SEM, HT-29.
Excerpt: as §1

Data set [5] can be described thus: Cell viability MTT assay on MCF-10A normal cells. The class given is cell-based. Conditions: human, MCF-10A mammary gland epithelial normal cells, MCF-10A cells, four days of incubation. How it is done:
The viability of new compounds 21–30 was examined using the human mammary gland epithelial (MCF-10A) cell line. The cell viability of compounds 21–30 was assessed using the MTT assay after four days of incubation on MCF-10A cells.
The human mammary gland epithelial (MCF-10A) normal cell line was utilized to investigate the viability of new derivatives 21–30 [56]. For more information, see Supplementary Materials Files.

In data set [6] the test system is breast cancer (MCF-7) cell line. As to the kind of experiment: Antiproliferative MTT assay, MCF-7. The class given is cell-based. Conditions: Homo sapiens, MCF7; MCF-7, MTT; read-out: Antiproliferative Activity IC50 ± SEM, MCF-7.
Excerpt: as §1

In data set [7] the test system is Caspase-8 in A-594 cancer cell line. In words: Caspase-8 level assay. The class given is cell-based, human. The conditions noted are these: for Caspase-8 Fold Change: A-594, vs untreated control; for Caspase-8 Conc: A-594 cell line.
The subject of data set [8] is Bax in A-594 cancer cell line. In words: Bax level assay. The class given is cell-based, human. Conditions: for Bax Fold Change: A-594, vs untreated control; for Bax Conc: A-594 cell line.
Data set [9] relates to Bcl-2 in A-594 cancer cell line. In words: Bcl-2 level assay. The conditions noted are these: for Bcl-2 Fold Reduction: A-594, vs untreated control; for Bcl-2 Conc: A-594 cell line. It is filed as cell-based, human. An excerpt: […]. […]. Compared to the untreated control cell, compounds 28 and 30 elevated caspase-8 levels by 25- and 28-fold, respectively.
[…]. Compounds 21, 28, and 30 were investigated as caspase-3, caspase-8, Bax activators, and Bcl-2 down-regulators against the human epithelial cancer cell line (A-594). See Supplementary Materials Files.

The subject of data set [10] is Caspase-3 in human epithelial cancer cell line (A-594). In words: Caspase 3 activation assay. The class given is cell-based. Conditions: for Caspase-3 Fold Change: A-594, vs untreated control cells; for Caspase-3 Conc: A-594 cell line. An excerpt:
Caspases are essential for the induction and maintenance of apoptosis. Caspase-3 is an important caspase that cleaves several cell proteins, causing apoptosis.
See Supplementary Materials Files.

EGFR, sequence (P00533 25-1210): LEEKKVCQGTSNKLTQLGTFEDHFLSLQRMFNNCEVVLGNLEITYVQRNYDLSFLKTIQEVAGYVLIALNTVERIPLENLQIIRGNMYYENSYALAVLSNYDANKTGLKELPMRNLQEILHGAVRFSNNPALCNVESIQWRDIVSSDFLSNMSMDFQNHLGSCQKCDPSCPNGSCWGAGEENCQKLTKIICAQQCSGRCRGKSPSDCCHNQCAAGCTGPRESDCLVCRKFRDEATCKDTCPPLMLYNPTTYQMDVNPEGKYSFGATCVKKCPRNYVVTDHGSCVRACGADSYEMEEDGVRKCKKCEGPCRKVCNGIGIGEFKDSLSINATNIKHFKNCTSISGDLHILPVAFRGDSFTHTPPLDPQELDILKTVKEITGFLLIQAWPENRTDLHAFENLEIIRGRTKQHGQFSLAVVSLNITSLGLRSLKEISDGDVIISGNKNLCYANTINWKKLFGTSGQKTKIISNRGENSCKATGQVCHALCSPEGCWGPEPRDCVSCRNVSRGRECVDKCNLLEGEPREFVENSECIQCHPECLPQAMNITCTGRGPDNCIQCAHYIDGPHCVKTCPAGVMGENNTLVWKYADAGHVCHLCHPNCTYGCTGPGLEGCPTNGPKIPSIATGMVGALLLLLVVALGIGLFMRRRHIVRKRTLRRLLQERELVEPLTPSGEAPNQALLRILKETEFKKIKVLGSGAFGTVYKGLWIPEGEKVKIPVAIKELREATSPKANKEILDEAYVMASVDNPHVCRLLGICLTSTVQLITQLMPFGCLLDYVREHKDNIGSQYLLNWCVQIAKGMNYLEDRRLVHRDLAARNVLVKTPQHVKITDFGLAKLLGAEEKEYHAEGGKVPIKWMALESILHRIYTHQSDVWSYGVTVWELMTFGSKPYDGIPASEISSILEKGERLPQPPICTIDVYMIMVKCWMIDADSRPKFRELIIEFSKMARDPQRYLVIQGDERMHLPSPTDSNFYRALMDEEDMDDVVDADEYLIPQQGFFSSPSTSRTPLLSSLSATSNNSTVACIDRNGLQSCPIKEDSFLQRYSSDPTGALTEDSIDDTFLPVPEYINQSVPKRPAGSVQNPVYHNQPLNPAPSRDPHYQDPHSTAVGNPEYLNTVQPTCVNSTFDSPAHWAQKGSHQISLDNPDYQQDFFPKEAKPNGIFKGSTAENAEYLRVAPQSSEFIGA
BRAF^V600E, sequence (P15056 whole entry V600E): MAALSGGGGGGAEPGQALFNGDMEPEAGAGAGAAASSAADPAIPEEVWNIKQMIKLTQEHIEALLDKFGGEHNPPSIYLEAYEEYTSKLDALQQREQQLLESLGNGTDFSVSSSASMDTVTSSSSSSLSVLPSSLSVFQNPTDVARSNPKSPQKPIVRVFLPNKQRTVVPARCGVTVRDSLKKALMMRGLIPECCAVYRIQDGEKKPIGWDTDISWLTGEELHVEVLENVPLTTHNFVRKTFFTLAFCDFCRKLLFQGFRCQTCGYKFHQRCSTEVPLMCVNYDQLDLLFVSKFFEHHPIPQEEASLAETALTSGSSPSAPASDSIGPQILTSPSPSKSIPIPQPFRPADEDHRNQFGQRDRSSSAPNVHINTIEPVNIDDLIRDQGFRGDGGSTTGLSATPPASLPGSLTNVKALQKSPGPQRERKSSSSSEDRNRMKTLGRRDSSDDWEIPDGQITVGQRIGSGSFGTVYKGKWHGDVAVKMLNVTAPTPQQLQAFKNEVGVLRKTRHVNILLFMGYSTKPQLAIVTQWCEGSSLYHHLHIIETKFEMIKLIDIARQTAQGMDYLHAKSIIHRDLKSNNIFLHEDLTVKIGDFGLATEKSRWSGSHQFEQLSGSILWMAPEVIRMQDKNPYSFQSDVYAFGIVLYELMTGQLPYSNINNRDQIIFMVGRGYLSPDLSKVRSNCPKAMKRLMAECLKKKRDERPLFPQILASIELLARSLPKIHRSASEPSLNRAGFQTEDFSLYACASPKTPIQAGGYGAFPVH

As for `COc1ccc(C2CC(c3ccc(NC(=O)Cn4c(-c5ccc(Cl)cc5)cc(-c5ccc(Cl)cc5)c(C#N)c4=O)cc3)=NN2)cc1OC` (stereo not shown) [Compound 29, 2-(3-Cyano-4,6-bis(4-chlorophenyl)-2-oxopyridin-1(2H)-yl)-N-(4-(5-(3,4-dimethoxyphenyl)-4,5-dihydro-1H-pyrazol-3-yl)phenyl)acetamide], the IC50 (in general, the point on the concentration scale where inhibition reaches its midpoint) in [1] worked out at 30 nM; at BRAF^V600E, 80 ± 7 nM; in data set [2] it was 27 ± 2 nM; in data set [3], 30 ± 3 nM; on EGFR, 75 ± 5 nM; in data set [4] it was 30 ± 3 nM. In addition, the IC50 in [6] is 31 ± 3 nM. For the same molecule, the viability (in general, the share of living cells, or the viability signal relative to a control) at 4 days, 50 µM in [5] stood at 91%.
For the molecule `COc1ccc(-c2cc(-c3ccc(OC)c(OC)c3)n(CC(=O)Nc3ccc(C4=NNC(c5ccccc5)C4)cc3)c(=O)c2C#N)cc1OC` (stereo not shown) [Compound 22, 2-(3-Cyano-4,6-bis(3,4-dimethoxyphenyl)-2-oxopyridin-1(2H)-yl)-N-(4-(5-phenyl-4,5-dihydro-1H-pyrazol-3-yl)phenyl)acetamide], in [1] (GI50 ratio vs compound 30), the “fold less potent than compound 30 (GI50)” value stood at 1.3 fold. The IC50 in data set [1] amounted to 33 nM; in [2], 32 ± 3 nM; in [3], 34 ± 3 nM; in [4] it was 32 ± 3 nM; in [6], 35 ± 3 nM. This molecule also gave a viability at 4 days, 50 µM in data set [5] of 89%.
On to `N#Cc1c(-c2ccc(Cl)cc2)cc(-c2ccc(Cl)cc2)n(CC(=O)Nc2ccc(C3=NNC(c4ccc(Cl)cc4Cl)C3)cc2)c1=O` (stereo not shown) [Compound 27, 2-(3-Cyano-4,6-bis(4-chlorophenyl)-2-oxopyridin-1(2H)-yl)-N-(4-(5-(2,4-dichlorophenyl)-4,5-dihydro-1H-pyrazol-3-yl)phenyl)acetamide], for which the IC50 came out at 38 nM in data set [1]; 36 ± 3 nM in data set [2]; 38 ± 3 nM in [3]; 38 ± 3 nM in [4]; 42 ± 4 nM in data set [6]. The molecule further registered a viability at 4 days, 50 µM in data set [5] of 88%.
As for `CN[C@@H]1C[C@H]2O[C@@](C)([C@@H]1OC)n1c3ccccc3c3c4c(c5c6ccccc6n2c5c31)C(=O)NC4` [Staurosporine, reference compound], in data set [7], the “Caspase-8 Fold Change” value is 21 fold. In addition, in data set [8], the “Bax Fold Change” value came out at 32 fold. Also, in [9], the “Bcl-2 Fold Reduction” value was found to be 5 fold and the “Bcl-2 Conc” value was 1.00 ng/mL. For the same molecule, the “Caspase-3 Fold Change” value in [10] was 7 fold.
As for `Cc1ccc(C2CC(c3ccc(NC(=O)Cn4c(-c5ccc(Cl)cc5)cc(-c5ccc(Cl)cc5)c(C#N)c4=O)cc3)=NN2)c(C)c1` (stereo not shown) [Compound 26, 2-(3-Cyano-4,6-bis(4-chlorophenyl)-2-oxopyridin-1(2H)-yl)-N-(4-(5-(2,4-dimethylphenyl)-4,5-dihydro-1H-pyrazol-3-yl)phenyl)acetamide], the IC50 in data set [1] turned out to be 37 nM; in data set [2], 35 ± 3 nM; in data set [3], 36 ± 3 nM; in data set [4], 36 ± 3 nM; in [6] it was 40 ± 4 nM. Further, the viability at 4 days, 50 µM in [5] is 92%.
For `C#Cc1cccc(Nc2ncnc3cc(OCCOC)c(OCCOC)cc23)c1` [Erlotinib, reference compound], the IC50 in [2] was found to be 30 ± 3 nM; in data set [3], 30 ± 3 nM; in data set [4] it was 30 ± 3 nM; in data set [6], 40 ± 3 nM.
As for `COc1ccc(-c2cc(-c3ccc(OC)c(OC)c3)n(CC(=O)Nc3ccc(C4=NNC(c5ccc(OC)c(OC)c5)C4)cc3)c(=O)c2C#N)cc1OC` (stereo not shown) [Compound 30, 2-(3-Cyano-4,6-bis(3,4-dimethoxyphenyl)-2-oxopyridin-1(2H)-yl)-N-(4-(5-(3,4-dimethoxyphenyl)-4,5-dihydro-1H-pyrazol-3-yl)phenyl)acetamide], in data set [1] (GI50 ratio vs Erlotinib), the “fold more potent than the reference Erlotinib (GI50)” value came out at 1.3 fold. Besides, the IC50 in [1] is 25 nM; on BRAF^V600E, 69 nM and 65 nM; in data set [2], 23 ± 2 nM; in [3], 24 ± 2 nM; at EGFR, 68 ± 4 nM; in [4], 24 ± 2 nM. In [6], the IC50 was 28 ± 2 nM. Also, the “Caspase-8 Fold Change” value in [7] is 28 fold. The “Caspase-8 Conc” value in [7] stood at 2.50 ng/mL. Further, the “Bax Fold Change” value in data set [8] was 38 fold. For the same molecule, the “Bax Conc” value in [8] turned out to be 345 pg/mL. Also, the “fold more potent than the reference Erlotinib (EGFR IC50)” value at EGFR came to 1.2 fold. Moreover, in data set [9], the “Bcl-2 Fold Reduction” value turned out to be 8 fold. In addition, the “Bcl-2 Conc” value in data set [9] came to 0.65 ng/mL. The molecule also gave a viability at 4 days, 50 µM in [5] of 90%. Further, the “Caspase-3 Fold Change” value in data set [10] was around 11 fold. Besides, the “Caspase-3 Conc” value in data set [10] came out at 710 ± 6 pg/mL.
Consider `COc1ccc(C2CC(c3ccc(NC(=O)Cn4c(-c5ccc(Cl)cc5)cc(-c5ccc(Cl)cc5)c(C#N)c4=O)cc3)=NN2)cc1` (stereo not shown) [Compound 25, 2-(3-Cyano-4,6-bis(4-chlorophenyl)-2-oxopyridin-1(2H)-yl)-N-(4-(5-(4-methoxyphenyl)-4,5-dihydro-1H-pyrazol-3-yl)phenyl)acetamide], for which the IC50 in data set [1] is 42 nM; in data set [2], 40 ± 3 nM; in data set [3] it was 42 ± 4 nM; in data set [4], 42 ± 4 nM; in data set [6], 45 ± 4 nM. Also, in [5], the viability at 4 days, 50 µM amounted to 88%.
On to `COc1ccc(C2CC(c3ccc(NC(=O)Cn4c(-c5ccc(OC)c(OC)c5)cc(-c5ccc(OC)c(OC)c5)c(C#N)c4=O)cc3)=NN2)cc1` (stereo not shown) [Compound 28, 2-(3-Cyano-4,6-bis(3,4-dimethoxyphenyl)-2-oxopyridin-1(2H)-yl)-N-(4-(5-(4-methoxyphenyl)-4,5-dihydro-1H-pyrazol-3-yl)phenyl)acetamide], for which the IC50 in [1] was 27 nM; on BRAF^V600E, 65 nM and 69 nM; in data set [2] it was 25 ± 2 nM; in data set [3], 26 ± 2 nM; on EGFR, 70 ± 5 nM; in [4], 26 ± 2 nM. The IC50 in data set [6] was found to be 30 ± 3 nM. For the same molecule, the “Caspase-8 Fold Change” value in [7] is reported as 25 fold. Moreover, the “Caspase-8 Conc” value in data set [7] is given as 2.25 ng/mL. Moreover, in data set [8], the “Bax Fold Change” value amounted to 36 fold. Moreover, in data set [8], the “Bax Conc” value came out at 325 pg/mL. Also, on EGFR, the “fold more potent than the reference Erlotinib (EGFR IC50)” value worked out at 1.2 fold. In addition, in [9], the “Bcl-2 Fold Reduction” value was determined as 6 fold. In addition, in data set [9], the “Bcl-2 Conc” value stood at 0.80 ng/mL. Further, the viability at 4 days, 50 µM in data set [5] worked out at 89%. Also, the “Caspase-3 Fold Change” value in [10] is around 9 fold. The “Caspase-3 Conc” value in data set [10] was 590 ± 5 pg/mL and 595 ± 5 pg/mL.
Regarding `N#Cc1c(-c2ccc(Cl)cc2)cc(-c2ccc(Cl)cc2)n(CC(=O)Nc2ccc(C3=NNC(c4ccccc4)C3)cc2)c1=O` (stereo not shown) [Compound 21, 2-(3-Cyano-4,6-bis(4-chlorophenyl)-2-oxopyridin-1(2H)-yl)-N-(4-(5-phenyl-4,5-dihydro-1H-pyrazol-3-yl)phenyl)acetamide], the IC50 amounted to 28 nM in data set [1]; 73 ± 6 nM on BRAF^V600E; 26 ± 2 nM in [2]; 28 ± 2 nM in data set [3]; 72 ± 5 nM at EGFR; 28 ± 2 nM in data set [4]. Further, in data set [6], the IC50 came to 30 ± 3 nM. The molecule also came in with a viability at 4 days, 50 µM in [5] of 90%. Besides, the “Caspase-3 Conc” value in data set [10] was found to be 530 ± 5 pg/mL.
With `COc1ccc(-c2cc(-c3ccc(OC)c(OC)c3)c(C#N)c(=O)n2CC(=O)Nc2ccc(C3=NNC(c4ccc(OC)c(OC)c4)C3)cc2)cc1` (stereo not shown) [Compound 24, 2-(3-Cyano-4-(3,4-dimethoxyphenyl)-6-(4-methoxyphenyl)-2-oxopyridin-1(2H)-yl)-N-(4-(5-(3,4-dimethoxyphenyl)-4,5-dihydro-1H-pyrazol-3-yl)phenyl)acetamide], the IC50 in data set [1] was determined as 29 nM; at BRAF^V600E it was 77 ± 6 nM; in [2], 27 ± 2 nM; in data set [3], 29 ± 2 nM; at EGFR it was 73 ± 5 nM; in data set [4], 28 ± 2 nM. In data set [6], the IC50 is 31 ± 3 nM. The viability at 4 days, 50 µM in data set [5] amounted to 90%.
Take `N#Cc1c(-c2ccc(Cl)cc2)cc(-c2ccc(Cl)cc2)n(CC(=O)Nc2ccc(C3=NNC(c4ccc(Cl)cc4)C3)cc2)c1=O` (stereo not shown) [Compound 23, 2-(3-Cyano-4,6-bis(4-chlorophenyl)-2-oxopyridin-1(2H)-yl)-N-(4-(5-(4-chlorophenyl)-4,5-dihydro-1H-pyrazol-3-yl)phenyl)acetamide]: the IC50 came out at 32 nM in data set [1]; 29 ± 2 nM in data set [2]; 32 ± 3 nM in data set [3]; 32 ± 3 nM in data set [4]; 34 ± 3 nM in data set [6]. The viability at 4 days, 50 µM in [5] came to 91%.
